PubChem BioAssay AID1259407 (Chemical Carcinogenesis Research Information System (CCRIS), 2018)
Active and inactive are the calls of the source. The rule behind the calls is not given here.

System: CCRIS mutagenicity, Ames/micronucleus/aberration tests
Test: CCRIS mutagenicity studies
[1] = Test System: AMES SALMONELLA TYPHIMURIUM, Strain/Indicator: TA98, Metabolic Activation: NONE, Method: PREINCUBATION
[2] = Test System: AMES SALMONELLA TYPHIMURIUM, Strain/Indicator: TA100, Metabolic Activation: NONE, Method: PREINCUBATION
[3] = Test System: AMES SALMONELLA TYPHIMURIUM, Strain/Indicator: TA1535, Metabolic Activation: NONE, Method: PREINCUBATION

Measured: mutagenic call

O=C(O)CNC(=O)c1ccc([N+](=O)[O-])cc1
inactive: Test System: AMES SALMONELLA TYPHIMURIUM, Strain/Indicator: TA98, Metabolic Activation: HAMSTER, LIVER, S-9, AROCLOR 1254 (30%), Method: PREINCUBATION inactive; negative | Test System: AMES SALMONELLA TYPHIMURIUM, Strain/Indicator: TA98, Metabolic Activation: RAT, LIVER, S-9, AROCLOR 1254 (30%), Method: PREINCUBATION inactive; negative | Test System: AMES SALMONELLA TYPHIMURIUM, Strain/Indicator: TA100, Metabolic Activation: HAMSTER, LIVER, S-9, AROCLOR 1254 (5, 10 OR 30%), Method: PREINCUBATION inactive; negative | Test System: AMES SALMONELLA TYPHIMURIUM, Strain/Indicator: TA100, Metabolic Activation: RAT, LIVER, S-9, AROCLOR 1254 (5, 10 OR 30%), Method: PREINCUBATION inactive; negative | Test System: AMES SALMONELLA TYPHIMURIUM, Strain/Indicator: TA1535, Metabolic Activation: HAMSTER, LIVER, S-9, AROCLOR 1254 (5, 10 OR 30%), Method: PREINCUBATION inactive; negative | [3] inactive; negative | Test System: AMES SALMONELLA TYPHIMURIUM, Strain/Indicator: TA1535, Metabolic Activation: RAT, LIVER, S-9, AROCLOR 1254 (5, 10 OR 30%), Method: PREINCUBATION inactive; negative
active: [1] active; positive | [2] active; positive | Test System: AMES SALMONELLA TYPHIMURIUM, Strain/Indicator: TA1538, Metabolic Activation: NONE, Method: PREINCUBATION active; positive

NC(=O)c1ccccc1
inactive: Test System: AMES SALMONELLA TYPHIMURIUM, Strain/Indicator: TA97, Metabolic Activation: HAMSTER, LIVER, S-9, AROCLOR 1254 (10 OR 30%), Method: PREINCUBATION inactive; negative | Test System: AMES SALMONELLA TYPHIMURIUM, Strain/Indicator: TA97, Metabolic Activation: NONE, Method: PREINCUBATION inactive; negative | Test System: AMES SALMONELLA TYPHIMURIUM, Strain/Indicator: TA97, Metabolic Activation: RAT, LIVER, S-9, AROCLOR 1254 (10 OR 30%), Method: PREINCUBATION inactive; negative | Test System: AMES SALMONELLA TYPHIMURIUM, Strain/Indicator: TA98, Metabolic Activation: HAMSTER, LIVER, S-9, AROCLOR 1254 (10 OR 30%), Method: PREINCUBATION inactive; negative | [1] inactive; negative | Test System: AMES SALMONELLA TYPHIMURIUM, Strain/Indicator: TA98, Metabolic Activation: RAT, LIVER, S-9, AROCLOR 1254 (10 OR 30%), Method: PREINCUBATION inactive; negative | Test System: AMES SALMONELLA TYPHIMURIUM, Strain/Indicator: TA100, Metabolic Activation: HAMSTER, LIVER, S-9, AROCLOR 1254 (10 OR 30%), Method: PREINCUBATION inactive; negative | [2] inactive; negative | Test System: AMES SALMONELLA TYPHIMURIUM, Strain/Indicator: TA100, Metabolic Activation: RAT, LIVER, S-9, AROCLOR 1254 (10 OR 30%), Method: PREINCUBATION inactive; negative | Test System: AMES SALMONELLA TYPHIMURIUM, Strain/Indicator: TA1535, Metabolic Activation: HAMSTER, LIVER, S-9, AROCLOR 1254 (10 OR 30%), Method: PREINCUBATION inactive; negative | [3] inactive; negative | Test System: AMES SALMONELLA TYPHIMURIUM, Strain/Indicator: TA1535, Metabolic Activation: RAT, LIVER, S-9, AROCLOR 1254 (10 OR 30%), Method: PREINCUBATION inactive; negative

C/C=C/C
inactive: Test System: AMES SALMONELLA TYPHIMURIUM, Strain/Indicator: TA98, Metabolic Activation: NONE, Method: GAS EXPOSURE inactive; negative | Test System: AMES SALMONELLA TYPHIMURIUM, Strain/Indicator: TA98, Metabolic Activation: RAT LIVER S-9, PHENOBARBITAL AND BETA-NAPHTHOFLAVONE (40%), Method: GAS EXPOSURE inactive; negative | Test System: AMES SALMONELLA TYPHIMURIUM, Strain/Indicator: TA100, Metabolic Activation: NONE, Method: GAS EXPOSURE inactive; negative | Test System: AMES SALMONELLA TYPHIMURIUM, Strain/Indicator: TA100, Metabolic Activation: RAT LIVER S-9, PHENOBARBITAL AND BETA-NAPHTHOFLAVONE (40%), Method: GAS EXPOSURE inactive; negative | Test System: AMES SALMONELLA TYPHIMURIUM, Strain/Indicator: TA1535, Metabolic Activation: NONE, Method: GAS EXPOSURE inactive; negative | Test System: AMES SALMONELLA TYPHIMURIUM, Strain/Indicator: TA1535, Metabolic Activation: RAT LIVER S-9, PHENOBARBITAL AND BETA-NAPHTHOFLAVONE (40%), Method: GAS EXPOSURE inactive; negative | Test System: AMES SALMONELLA TYPHIMURIUM, Strain/Indicator: TA1537, Metabolic Activation: NONE, Method: GAS EXPOSURE inactive; negative | Test System: AMES SALMONELLA TYPHIMURIUM, Strain/Indicator: TA1537, Metabolic Activation: RAT LIVER S-9, PHENOBARBITAL AND BETA-NAPHTHOFLAVONE (40%), Method: GAS EXPOSURE inactive; negative | Test System: E.COLI, Strain/Indicator: WP2UVRA, Metabolic Activation: NONE, Method: GAS EXPOSURE inactive; negative | Test System: E.COLI, Strain/Indicator: WP2UVRA, Metabolic Activation: RAT LIVER S-9, PHENOBARBITAL AND BETA-NAPHTHOFLAVONE (40%), Method: GAS EXPOSURE inactive; negative

CN(C)C1Cc2cccc3cccc(c23)C1
inactive: Test System: AMES SALMONELLA TYPHIMURIUM, Strain/Indicator: TA97, Metabolic Activation: NONE, Method: STANDARD PLATE inactive; negative | Test System: AMES SALMONELLA TYPHIMURIUM, Strain/Indicator: TA97, Metabolic Activation: RAT, LIVER, S-9, AROCLOR 1254, Method: STANDARD PLATE inactive; negative | Test System: AMES SALMONELLA TYPHIMURIUM, Strain/Indicator: TA98, Metabolic Activation: NONE, Method: STANDARD PLATE inactive; negative | Test System: AMES SALMONELLA TYPHIMURIUM, Strain/Indicator: TA100, Metabolic Activation: NONE, Method: STANDARD PLATE inactive; negative | Test System: AMES SALMONELLA TYPHIMURIUM, Strain/Indicator: TA100, Metabolic Activation: RAT, LIVER, S-9, AROCLOR 1254, Method: STANDARD PLATE inactive; negative | Test System: AMES SALMONELLA TYPHIMURIUM, Strain/Indicator: TA102, Metabolic Activation: NONE, Method: STANDARD PLATE inactive; negative | Test System: AMES SALMONELLA TYPHIMURIUM, Strain/Indicator: TA102, Metabolic Activation: RAT, LIVER, S-9, AROCLOR 1254, Method: STANDARD PLATE inactive; negative | Test System: AMES SALMONELLA TYPHIMURIUM, Strain/Indicator: TA1535, Metabolic Activation: NONE, Method: STANDARD PLATE inactive; negative | Test System: AMES SALMONELLA TYPHIMURIUM, Strain/Indicator: TA1535, Metabolic Activation: RAT, LIVER, S-9, AROCLOR 1254, Method: STANDARD PLATE inactive; negative
active: Test System: AMES SALMONELLA TYPHIMURIUM, Strain/Indicator: TA98, Metabolic Activation: RAT, LIVER, S-9, AROCLOR 1254, Method: STANDARD PLATE active; positive

Nc1ccc2c(c1)-c1ccccc1C2
active: Test System: AMES SALMONELLA TYPHIMURIUM, Strain/Indicator: TA98, Metabolic Activation: RAT, LIVER, S-9, AROCLOR 1254 (2 OR 4%), Method: STANDARD PLATE active; positive | Test System: AMES SALMONELLA TYPHIMURIUM, Strain/Indicator: TA100, Metabolic Activation: RAT, LIVER, S-9, AROCLOR 1254 (4%), Method: STANDARD PLATE active; positive | Test System: AMES SALMONELLA TYPHIMURIUM, Strain/Indicator: TA1537, Metabolic Activation: RAT, LIVER, S-9, AROCLOR 1254 (4%), Method: STANDARD PLATE active; positive
inactive: Test System: AMES SALMONELLA TYPHIMURIUM, Strain/Indicator: TA1535, Metabolic Activation: RAT, LIVER, S-9, AROCLOR 1254 (4%), Method: STANDARD PLATE inactive; negative
